Assay results from patent US20080293640A1, “Polypeptide inhibitors of HSP27 kinase and uses therefor” (Arizona Board of Regents, A body Corporate, of the State of …, priority 2007, published 2008).

Columns and labels:
[1] = system: human saphenous vein (HSV); assay: Sodium nitroprusside induced relaxation of human saphenous vein segments in a muscle bath; conditions: pretreated 2 hrs with 25 μM SB203580 or 30 μM BIP; contracted with NE 0.5 μM; SNP 0-1 μM; n=3; FIG. 5
Method: Segments of human saphenous vein (HSV) were equilibrated in a muscle bath and pretreated with buffer (control), 25 μM SB203580 (SB) or 30 μM BIP for 2 hrs and then contracted with norepinephrine (NE, 0.5 μM) and relaxed with increasing doses of sodium nitroprusside (SNP, 0-1 μM).

[2] = system: Human saphenous vein rings; assay: Intimal thickening in human saphenous vein rings, 14 day organ culture; conditions: BIP 5 or 10 μM, SB 20 μM; 14 days; FIG. 6
Method: Human saphenous vein rings were cultured in RPMI medium supplemented with L-glutamine (1%), penicillin/streptomycin (1%) and FBS (30%) at 5% CO2 and 37° C. for 14 days. The rings were either untreated (C) or treated with BIP (5 or 10 μM), SB (20 μM) or recombinant HSP27 protein (r-HSP27). * p<0.05 compared to the control (untreated) rings. After 14 days, the rings were fixed in formalin, embedded in paraffin, sectioned at 10 micrometer and stained using Weigert's Resorcin Fuchsin. The slides were analyzed by Zeiss microscope with 40× objective. The intimal thickness was measured using Zeiss and Adobe Photoshop software.

[3] = system: Human saphenous vein rings; assay: CTGF expression and phosphorylation of HSP27 in saphenous vein organ culture model (western blot); conditions: BIP 5 or 10 μM, SB 20 μM; 14 days; related to actin, untreated set to 1; FIG. 7
Method: The human saphenous vein rings were cultured in RPMI medium supplemented with L-glutamine (1%), penicillin/streptomycin (1%) and FBS (30%) at 5% CO2 and 37° C. for 14 days. The rings were either untreated (Control, C) or treated with BIP (5 or 10 μM) or SB (20 μM). Rings were frozen after 14 days and protein was extracted and separated by SDS-PAGE and analyzed by western blot using the antibodies as indicated. The data is shown in FIG. 7; Panel A is a representative blot, and Panels B and C show the data summary. The bands were quantified by densitometry, and CTGF, phosphorylated HSP27 or non-phosphorylated HSP27 expressions were related to actin expression to correct for loading differences. The expression of CTGF and HSP27 and phospho-HSP27 in untreated rings was set to 1 for comparison of different blots. Data expressed as mean ±standard deviation of 6 experiments (panel right). *: p<0.05 compared to the untreated rings (C).

[4] = system: Rat aortic smooth muscle, A7R5 cells; assay: ARS or LPA induced phosphorylation of HSP27 in A7R5 cells (western blot); type: cell-based; conditions: BIP 1, 5 or 10 μM or SB 20 μM for 2 h prior to ARS 500 μM or LPA 25 μM for 0.5 h; FIG. 8
Method: The cells were serum starved with DMEM medium supplemented with 1% BSA and 1% penicillin/streptomycin for 24 h. The phosphorylation of HSP27 was induced using arsenite (ARS, 500 μM) or lysophosphatidic acid (LPA, 25 μM) for 0.5 h. Cells were either untreated or pre-treated with BIP (1, 5 or 10 μM) or SB (20 μM) for 2 h prior to the stimulation with ARS or LPA. Cells were frozen after treatment and analyzed by SDS-PAGE and western blot. The data are shown in FIG. 8; Panels A and B are representative western blots, while Panels C and D provide the data. The bands were quantified by densitometry, and phosphorylated HSP27 or non-phosphorylated HSP27 expressions were related to actin expression to correct for loading differences. The ratio of phosphorylated HSP27/HSP27 (relative p-HSP27/HSP27) in untreated cells was set to 1 for comparison of different blots. Data expressed as mean ±standard deviation of 4 experiments. *: p<0.05 compared to the untreated cells (C).

[5] = system: rat aortic smooth muscle (A7R5) cells; assay: LPA induced CTGF expression in A7R5 cells (western blot); type: cell-based; conditions: BIP 10 or 20 μM or SB 20 μM for 2 h prior to LPA 25 μM, 24 h; FIG. 9
Method: The cells were serum starved with DMEM medium supplemented with 1% BSA and 1% penicillin/streptomycin for 24 h. Cells were either untreated (C) or pre-treated with BIP (10 or 20 μM) or SB (20 μM) for 2 h prior the stimulation with lysophosphatidic acid (LPA, 25 μM). After 24 h the cells were lysed, protein extracted and separated by SDS-PAGE and analyzed by western blotting. The data are shown in FIG. 9; Panel A is a representative western blot, while Panel B provides the data. The bands were quantified by densitometry, and CTGF expression was related to actin expression to correct for loading differences. CTGF expression in untreated cells (C) was set to 1 for comparison of different blots. Data expressed as mean ±standard deviation of 3 experiments. *: p<0.05 compared to the cells stimulated with LPA.

MAPKAPKII = MAPKAPKII (Homo sapiens, UniProt P49137); assay: In vitro phosphorylation of recombinant HSP27 with […] (immunoblot); type: biochemical; conditions: MAPKAPKII 50 ng, 30 min at 30° C.; ratio P-P27 to P27, percent phosphorylation vs no inhibitor; FIG. 1
MAPKAPKII, sequence (P49137 whole entry): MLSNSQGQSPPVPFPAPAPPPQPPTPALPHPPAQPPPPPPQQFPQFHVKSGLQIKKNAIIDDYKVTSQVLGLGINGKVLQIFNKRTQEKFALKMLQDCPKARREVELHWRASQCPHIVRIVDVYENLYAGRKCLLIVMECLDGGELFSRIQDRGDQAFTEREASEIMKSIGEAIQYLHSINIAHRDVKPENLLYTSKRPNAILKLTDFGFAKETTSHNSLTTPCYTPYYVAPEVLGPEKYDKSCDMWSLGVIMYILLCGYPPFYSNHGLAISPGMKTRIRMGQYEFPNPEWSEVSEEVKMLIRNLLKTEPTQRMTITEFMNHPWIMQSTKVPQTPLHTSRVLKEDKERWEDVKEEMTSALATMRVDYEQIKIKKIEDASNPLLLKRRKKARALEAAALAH
Method: Recombinant HSP27 ([…]) was phosphorylated with no enzyme (control, lane 1), […] (50 ng) in the absence (lane 2) or presence of 200 μM ([…]) (SEQ ID NO: 44) obtained from Calbiochem, (lane 3), or BIP (HSP27 kinase inhibitor peptide, […] (SEQ ID NO: 45) (lane 4) or HSP20 phosphopeptide (PTD-P20, lane 4) for 30 min at 30° C. The reaction mixtures were inactivated and separated by SDS-PAGE and transferred to PVDF membrane. The blot was probed with antibodies against HSP27 and phospho-HSP27. The ratio of P-P27 to P27 was calculated and the percent phosphorylation was determined with respect to the phosphorylation obtained in the absence of inhibitor (lane 2). This blot is a representative of 2 separate experiments.

human keloid fibroblasts [6] = assay: TGF-β1 induced expression of CTGF and collagen in human keloid fibroblasts (immunoblot); type: cell-based
Excerpt: (§1) One important downstream signaling event in the TGFB signaling pathway is the activation of HSP27 kinase. We have designed a cell permeable inhibitor of this kinase (BIP) that effectively blocks its activity. In this study, we employ stable isotopic labeling by amino acids in cell culture (SILAC) as a means to quantitate the protein expression differences manifest during 1) TGF-β1 stimulation, 2) TGF-β1 stimulation in the presence of BIP, or 3) no treatment at all (control) in a keloid fibroblast cell line. Human keloid fibroblasts were grown to 80% confluence, and then serum-starved for 48 h. The cells were subsequently stimulated with nothing (control), with 1.25 ng/ml of transforming growth factor beta 1 (TGFβ) for 24 h, or 10 μM of a BIP for 2 h followed by TGFβ1 for 24 h (TGFβ+BIP). The expression of CTGF and collagen was assessed by immunoblot and normalized to b-actin expression. Phospho-HSP27 was expressed as a ratio to endogenous HSP27. Quantitative results represent average ±standard deviation from 3 independent experiments.
Human keloid fibroblasts were maintained in Dulbecco's modified Eagle's medium (DMEM) supplemented with fetal calf serum (10%) and streptomycin/penicillin (1%). They were grown to 80% confluence, and then serum-starved for 48 h. […] The expression of CTGF and collagen was assessed by immunoblot and normalized to GAPDH (loading control) expression. Results in the graphs (FIG. 3) represent average ±standard deviation from 3 independent experiments.
In a further example, BIP was used at lower concentrations (5 or 10 μM).

human keloid fibroblasts [7] = assay: TGF-β1 induced stress fiber formation in human keloid fibroblasts (phalloidin microscopy); type: cell-based; conditions: 60 μM BIP for 2 h followed by TGF-β1 1.25 ng/ml for 24 h
Method: Human keloid fibroblasts were maintained in Dulbecco's modified Eagle's medium (DMEM) supplemented with fetal calf serum (10%) and streptomycin/penicillin (1%). They were grown on cover slips and then serum-starved for 48 h. […] Cells were washed, processed for microscopy and labelled with Alexa 586-conjugated phalloidin to reveal the actin cytoskeleton and DAPI to reveal nucleus, magnification 40×.

human keloid fibroblasts [8] = assay: TGF-β1 induced phosphorylation of HSP27 in human keloid fibroblasts (fluorescence microscopy); type: cell-based; conditions: 60 μM BIP for 2 h followed by TGF-β1 1.25 ng/ml for 24 h
Method: Human keloid fibroblasts were maintained in Dulbecco's modified Eagle's medium (DMEM) supplemented with fetal calf serum (10%) and streptomycin/penicillin (1%). They were grown on cover slips and then serum-starved for 48 h. […] Cells were washed, processed for microscopy and labelled with Cy2 for phospho-HSP27 (ser 78/82, green fluorescence), Alexa 586-conjugated phalloidin (red) to reveal the actin cytoskeleton and DAPI (blue) to reveal nucleus, magnification 40×. Pre-treatment of cells with BIP followed by TGFb1 reduced phosphorylation of HSP27 in keloid fibroblasts.

human keloid fibroblasts [9] = assay: TGF-β1 induced phosphorylation of HSP27 in human keloid fibroblasts (immunoblot); type: cell-based
Excerpt: as §1
Human keloid fibroblasts were maintained in Dulbecco's modified Eagle's medium (DMEM) supplemented with fetal calf serum (10%) and streptomycin/penicillin (1%). They were grown to 80% confluence, and then serum-starved for 48 h. […] The phosphorylation of HSP27 was assessed by immunoblot analysis using antibodies as indicated. B, The ratio of P-P27 to P27 was calculated and the percent phosphorylation was determined with respect to the phosphorylation obtained with TGF b (lane 2).
In a separate example, lower concentrations of BIP (5 μM and 10 μM) were employed. […] TGF-β1-stimulated cells were treated with BIP (5 or 10 μM) for 24 h, and HSP27 and phospho-HSP27 levels were quantified relative to β-actin expression to correct for loading differences and normalized to untreated levels.

[10] = system: Human Aortic Endothelial Cells; assay: Endothelial cell proliferation (CyQuant NF Cell Proliferation Assay); type: cell-based; conditions: 1, 10 or 50 μM BIP, 16 hours
Method: Human Aortic Endothelial Cells (Passage 2) (Cascade Biologics) were seeded into 96-well plates at a concentration of 2000 cells per well as determined using a hemocytometer and allowed to adhere for 4 hours. They were then treated with a final concentration of 1, 10 or 50 μM MK2 inhibitor peptide (BIP), 1, 10, or 50 μM scrambled peptide (SCR), or and equal volume of PBS. Cells were returned to the incubator for 16 hours and counted on a Molecular Devices M5 spectrophotometer after 1 hour treatment with CyQuant NF Cell Proliferation Assay (Invitrogen).

[11] = system: rat aortic smooth muscle (A7R5) cells; assay: Scratch migration of A7R5 cells stimulated with LPA or TGF; type: cell-based; conditions: BIP 10 μM for 2 h prior to LPA 25 μM or TGF 2.5 ng/mL; FIG. 10
Method: A7R5 cells were serum starved with DMEM medium supplemented with 1% BSA and 1% penicillin/streptomycin for 24 h. A scratch made in the dishes using the tip of a pipette, and the cells were rinsed 3 times with PBS. Cells were untreated (C) or pre-treated with BIP (10 μM) for 2 h prior the stimulation with lysophosphatidic acid (LPA, 25 μM) or TGF (2.5 ng/mL). *: p<0.05 compared to the cells stimulated with LPA or TGF.

[12] = 10 μM BIP for 2 h followed by TGFβ1 1.25 ng/ml for 24 h
[13] = 60 μM BIP for 2 h followed by TGF-β1 1.25 ng/ml for 24 h, normalized to GAPDH, FIG. 3

Row | Compound | sodium nitroprusside induced relaxation of saphenous vein [1] | thickening of the intimal layer in saphenous vein [2] | CTGF expression in saphenous vein [3] | phosphorylation of HSP27 in saphenous vein [3] | phosphorylation of HSP27 (relative p-HSP27/HSP27) [4] | LPA induced CTGF expression [5] | MAPKAPKII induced phosphorylation of HSP27 in vitro (MAPKAPKII) | TGFβ1 induced expression of CTGF (human keloid fibroblasts [6]; [12]) | TGFβ1 induced expression of collagen (human keloid fibroblasts [6]; [12]) | TGF-β1 induced expression of CTGF (human keloid fibroblasts [6]; [13]) | TGF-β1 induced expression of collagen (human keloid fibroblasts [6]; [13]) | central actin (human keloid fibroblasts [7]) | stress fiber formation (human keloid fibroblasts [7]) | TGF-β1 induced phosphorylation of HSP27 (ser 78/82), fluorescence microscopy (human keloid fibroblasts [8]) | phosphorylation of HSP27 (phospho-HSP27 as ratio to endogenous HSP27) (human keloid fibroblasts [9]; 10 μM BIP for 2 h followed by TGFβ1 for 24 h, FIG. 2) | TGF-β1 induced phosphorylation of HSP27, immunoblot (human keloid fibroblasts [9]; 10 μM BIP for 24 h, TGF-β1-stimulated cells, relative to β-actin, normalized to untreated) | TGF-β1 induced phosphorylation of HSP27 (ratio P-P27 to P27), immunoblot (human keloid fibroblasts [9]; 60 μM BIP for 2 h followed by TGFβ-1 […] for 24 h, n=3, FIG. 4) | EC proliferation [10] | migration of cells [11]
1 | C[S+]([O-])c1ccc(-c2nc(-c3ccncc3)c(-c3ccc(F)cc3)[nH]2)cc1 (stereo not shown) [SB, SB 203580, reference compound] | significant increases | Inhibits | Inhibits | Inhibits | Inhibits | Inhibits |  |  |  |  |  |  |  |  |  |  |  |  | 
2 | WLRRIKAWLRRIKALNRQLGVAA [BIP] | significant increases | inhibits | inhibits | inhibits | inhibits | inhibits | inhibits | inhibits | inhibits | inhibits | inhibits | loss of central actin | reduced stress fiber formation | reduced | reduces | inhibits | effectively inhibited | Does Not Inhibit | inhibits
